# Laboratory results taken from the supplement of paper PMC10307832.
# How the values were obtained:
# Experiment in all cases: relative viability (nuclei count vs DMSO), 5 days (fraction); higher = more cells survive
# [1] = compound: NS(=O)(=O)OC[C@@H]1C[C@@H](n2ccc3c(N[C@H]4CCc5ccccc54)ncnc32)C[C@@H]1O [MLN4924] + COc1cc2c(Oc3ccc(NC(=O)C4(C(=O)Nc5ccc(F)cc5)CC4)cc3F)ccnc2cc1OCCCN1CCOCC1 [Foretinib] (partner 0.25 µM)
# In short: (§1)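 Lung cancer cell lines in 1536-well plates got either a single drug or a fixed anchor-drug dose together with five library-drug doses (not always all listed) in √10 steps, by pin tool, on the day after seeding. Nuclei were counted after 5 days, and relative viability is the treated-to-vehicle ratio of nuclei counts. Values are medians of duplicate plates.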
# [2] = compound: C1CC(C1)(C(=O)O)C(=O)O.[NH2-].[NH2-].[Pt+2] [Carboplatin] + COc1cc2c(Oc3ccc(NC(=O)C4(C(=O)Nc5ccc(F)cc5)CC4)cc3F)ccnc2cc1OCCCN1CCOCC1 [Foretinib] (partner 0.25 µM)
# In short: as §1
# [3] = compound: C1CC(C1)(C(=O)O)C(=O)O.[NH2-].[NH2-].[Pt+2] [Carboplatin] + Cc1cc(Nc2cc(N3CCN(C)CC3)nc(Sc3ccc(NC(=O)C4CC4)cc3)n2)n[nH]1 [Tozasertib] (partner 0.1 µM)
# In short: as §1
# [4] = compound: C1CC(C1)(C(=O)O)C(=O)O.[NH2-].[NH2-].[Pt+2] [Carboplatin] + CC(=O)Nc1cccc(-n2c(=O)n(C3CC3)c(=O)c3c(Nc4ccc(I)cc4F)n(C)c(=O)c(C)c32)c1 [Trametinib] (partner 0.02 µM)
# In short: as §1
Cell Line,relative viability ([1]; first compound 0.04 µM),relative viability ([1]; first compound 0.1265 µM),relative viability ([1]; first compound 0.4 µM),relative viability ([1]; first compound 1.265 µM),relative viability ([1]; first compound 4 µM),relative viability ([2]; first compound 0.08 µM),relative viability ([2]; first compound 0.253 µM),relative viability ([2]; first compound 0.8 µM),relative viability ([2]; first compound 2.53 µM),relative viability ([2]; first compound 8 µM),relative viability ([3]; first compound 0.08 µM),relative viability ([3]; first compound 0.253 µM),relative viability ([3]; first compound 0.8 µM),relative viability ([3]; first compound 2.53 µM),relative viability ([3]; first compound 8 µM),relative viability ([4]; first compound 0.08 µM),relative viability ([4]; first compound 0.253 µM),relative viability ([4]; first compound 0.8 µM),relative viability ([4]; first compound 2.53 µM),relative viability ([4]; first compound 8 µM)
NCI-H2126,1.14,0.87,1.08,0.335,0.267,1.31,1.14,1.04,1.25,1.04,0.971,0.915,0.882,0.828,0.732,0.586,0.613,0.562,0.614,0.536
SW 900,0.762,0.682,0.315,0.179,0.107,1.08,0.789,0.677,0.769,0.682,0.682,0.479,0.56,0.399,0.314,0.794,0.904,1.07,0.7,0.759
LXF-289,0.846,0.564,0.565,0.188,0.0965,1.02,0.996,0.992,0.918,0.992,0.199,0.209,0.22,0.218,0.177,0.671,0.717,0.674,0.712,0.656
BEN,0.491,0.307,0.219,0.169,0.129,0.778,0.654,0.69,0.658,0.589,0.588,0.633,0.469,0.486,0.433,1.2,0.928,0.97,0.893,0.865
NCI-H1993,0.624,0.59,0.517,0.553,0.602,1.02,0.903,0.763,0.658,0.744,0.61,0.643,0.575,0.593,0.635,0.564,0.51,0.561,0.404,0.497
SW 1573,0.967,0.982,0.875,0.156,0.0921,0.883,1.03,1.01,0.901,0.799,0.2,0.191,0.19,0.173,0.207,0.677,0.539,0.528,0.555,0.387
NCI-H520,0.732,0.502,0.409,0.305,0.205,0.905,0.815,0.795,0.831,0.575,0.5,0.433,0.438,0.389,0.459,0.856,0.812,0.724,0.766,0.484
LCLC-97TM1,0.97,0.424,0.69,0.127,0.123,1,0.956,0.892,0.868,0.765,0.235,0.292,0.249,0.192,0.212,0.236,0.216,0.212,0.228,0.26
HCC-827,0.993,0.591,0.568,0.238,0.144,1.05,1.03,1.01,0.995,0.912,0.441,0.414,0.413,0.418,0.397,0.579,0.517,0.557,0.497,0.57
NCI-H1975,0.962,1.08,1.27,0.488,0.207,1.08,1.02,0.782,0.88,0.946,0.882,0.719,0.634,0.626,0.677,0.329,0.391,0.33,0.371,0.388
